Measured values from patent US11479539B2, “Small molecule modulators of the BTB domain of Keap1” (MedImmune Limited, priority 2017, dated 2022).

Target: Keap1 (Homo sapiens (Human), UniProt Q14145)
Assay: HEK293 ARE luciferase assay
Assay type: cell-based
Conditions: HEK-293 ARE firefly luciferase transiently transfected cells; 18 h incubation; mean of 1 to 20 individual measurements
Procedure, shortened: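 Transiently transfected HEK-293 ARE firefly luciferase cells (10,000/well, DMEM with 10% FCS) exposed to compound, 10-point curve from 100 μM top, 0.3% DMSO, 18 h at 37 °C. SteadyGlo luminescence; activity normalised to 30 μM tBHQ (stimulator) and DMSO (neutral), activity threshold 50; means of 1-20 measurements.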

Chain of Keap1 (Q14145 whole entry): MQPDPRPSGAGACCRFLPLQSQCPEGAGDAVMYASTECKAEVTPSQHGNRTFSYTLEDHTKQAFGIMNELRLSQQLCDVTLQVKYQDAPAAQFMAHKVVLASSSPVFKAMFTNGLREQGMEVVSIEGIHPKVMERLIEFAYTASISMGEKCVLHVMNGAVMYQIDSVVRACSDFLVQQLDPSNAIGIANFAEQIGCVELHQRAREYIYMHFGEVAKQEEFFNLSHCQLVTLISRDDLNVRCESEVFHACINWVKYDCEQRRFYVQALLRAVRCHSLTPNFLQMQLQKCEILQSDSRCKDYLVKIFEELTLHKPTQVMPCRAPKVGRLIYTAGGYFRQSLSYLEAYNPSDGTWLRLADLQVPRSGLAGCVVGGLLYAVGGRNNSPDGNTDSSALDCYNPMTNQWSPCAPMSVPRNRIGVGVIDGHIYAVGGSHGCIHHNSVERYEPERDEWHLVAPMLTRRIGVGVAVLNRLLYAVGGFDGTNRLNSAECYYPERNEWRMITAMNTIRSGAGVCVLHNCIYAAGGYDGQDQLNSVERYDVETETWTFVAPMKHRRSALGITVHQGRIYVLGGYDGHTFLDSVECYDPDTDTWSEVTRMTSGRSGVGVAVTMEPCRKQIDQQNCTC

| Compound | EC50 |
| --- | --- |
| COC1(c2nc(C)c(-c3ccccn3)s2)C=C(C#N)C(=O)C2(CC2)C1 (single isomer, unassigned) [Compound 102, 7-methoxy-7-[4-methyl-5-(pyridin-2-yl)-1,3-thiazol-2-yl]-4-oxospiro[2.5]oct-5-ene-5-carbonitrile] | 73 nM |
| COC1(c2ncc(F)cc2-c2ccn3ncnc3c2)C=C(C#N)C(=O)C(C)(C)C1 (stereo not shown) [Compound 188, 3-[5-fluoro-3-([1,2,4]triazolo[1,5-a]pyridin-7-yl)pyridin-2-yl]-3-methoxy-5,5-dimethyl-6-oxocyclohex-1-ene-1-carbonitrile] | 23 nM |
| COC1(c2ncccc2C(F)(F)F)C=C(C#N)C(=O)C(C)(C)C1 (stereo not shown) [Compound 122, 3-methoxy-5,5-dimethyl-6-oxo-3-[3-(trifluoromethyl)pyridin-2-yl]cyclohex-1-ene-1-carbonitrile] | 43 nM |
| COC1(c2ncc(F)cc2-c2ccc(C(F)(F)F)nc2)C=C(C#N)C(=O)C(C)(C)C1 (single isomer, unassigned) [Compound 90, 3-[5-fluoro-3-[6-(trifluoromethyl)-3-pyridyl]-2-pyridyl]-3-methoxy-5,5-dimethyl-6-oxo-cyclohexene-1-carbonitrile] | 11 nM |
| COC1(c2ncc(F)cc2-c2c(C)nn(C)c2C)C=C(C#N)C(=O)C(C)(C)C1 (stereo not shown) [Compound 189, 3-[5-fluoro-3-(1,3,5-trimethyl-1H-pyrazol-4-yl)pyridin-2-yl]-3-methoxy-5,5-dimethyl-6-oxocyclohex-1-ene-1-carbonitrile] | 1530 nM |
| COC1(c2ccc(Cl)cn2)C=C(C#N)C(=O)C2(CC2)C1 (stereo not shown) [Compound 65, 7-(5-chloropyridin-2-yl)-7-methoxy-4-oxospiro[2.5]oct-5-ene-5-carbonitrile] | 247 nM |
| COC1(c2ncc(F)cc2C)C=C(C#N)C(=O)C(C)(C)C1 (stereo not shown) [Compound 137, 3-(5-fluoro-3-methylpyridin-2-yl)-3-methoxy-5,5-dimethyl-6-oxocyclohex-1-ene-1-carbonitrile] | 47 nM |
| COC1(c2ncc(F)cc2-c2cnn(-c3ccccc3)c2)C=C(C#N)C(=O)C(C)(C)C1 (stereo not shown) [Compound 179, 3-[5-fluoro-3-(1-phenyl-1H-pyrazol-4-yl)pyridin-2-yl]-3-methoxy-5,5-dimethyl-6-oxocyclohex-1-ene-1-carbonitrile] | 7 nM |
| COC1(c2ncc(F)cc2-c2cnn(C3CC3)c2)C=C(C#N)C(=O)C(C)(C)C1 (stereo not shown) [Compound 166, 3-[3-(1-cyclopropyl-1H-pyrazol-4-yl)-5-fluoropyridin-2-yl]-3-methoxy-5,5-dimethyl-6-oxocyclohex-1-ene-1-carbonitrile] | 14 nM |
| COC1(c2ncc(F)cc2-c2cnn(C)c2)C=C(C#N)C(=O)C(C)(C)C1 (stereo not shown) [Compound 161, 3-[5-fluoro-3-(1-methyl-1H-pyrazol-4-yl)pyridin-2-yl]-3-methoxy-5,5-dimethyl-6-oxocyclohex-1-ene-1-carbonitrile] | 14 nM |
| COC1(c2ncc(F)cc2-c2ccc3ccnn3c2)C=C(C#N)C(=O)C(C)(C)C1 (single isomer, unassigned) [Compound 203, 3-[5-fluoro-3-(pyrazolo[1,5-a]pyridin-6-yl)pyridin-2-yl]-3-methoxy-5,5-dimethyl-6-oxocyclohex-1-ene-1-carbonitrile] | 6 nM |
| COC1(c2ncc(F)cc2-c2ccc(F)cc2)C=C(C#N)C(=O)C(C)(C)C1 (stereo not shown) [Compound 163, 3-[5-fluoro-3-(4-fluorophenyl)pyridin-2-yl]-3-methoxy-5,5-dimethyl-6-oxocyclohex-1-ene-1-carbonitrile] | 54 nM |
| COC1(c2sccc2C)C=C(C#N)C(=O)C(C)(C)C1 (stereo not shown) [Compound 139, 3-methoxy-5,5-dimethyl-3-(3-methylthiophen-2-yl)-6-oxocyclohex-1-ene-1-carbonitrile] | 381 nM |
| COC1(c2ncc(F)cc2-c2cncc(C(F)(F)F)c2)C=C(C#N)C(=O)C(C)(C)C1 (single isomer, unassigned) [Compound 87, 3-[5-fluoro-3-[5-(trifluoromethyl)-3-pyridyl]-2-pyridyl]-3-methoxy-5,5-dimethyl-6-oxo-cyclohexene-1-carbonitrile] | 17 nM |
| COC1(c2ncccc2OC(F)(F)F)C=C(C#N)C(=O)C(C)(C)C1 (stereo not shown) [Compound 147, 3-methoxy-5,5-dimethyl-6-oxo-3-[3-(trifluoromethoxy)pyridin-2-yl]cyclohex-1-ene-1-carbonitrile] | 22 nM |
| COC1(c2ncc(F)cc2-c2cnccc2C#N)C=C(C#N)C(=O)C(C)(C)C1 (single isomer, unassigned) [Compound 217, 2′-[3-cyano-1-methoxy-5,5-dimethyl-4-oxocyclohex-2-en-1-yl]-5′-fluoro[3,3′-bipyridine]-4-carbonitrile] | 12 nM |
| COC1(c2cncc(C)n2)C=C(C#N)C(=O)C2(CC2)C1 (single isomer, unassigned) [Compound 54, 7-methoxy-7-(6-methylpyrazin-2-yl)-4-oxospiro[2.5]oct-5-ene-5-carbonitrile] | 363 nM |

| Compound | EC50 |
| --- | --- |
| COC1(c2ncc(F)cc2Br)C=C(C#N)C(=O)C(C)(C)C1 (single isomer, unassigned) [Compound 48, 3-(3-bromo-5-fluoropyridin-2-yl)-3-methoxy-5,5-dimethyl-6-oxocyclohex-1-enecarbonitrile] | 6 nM |
| COC1(c2ncccc2Br)CC(C)(C)C(=O)C(C#N)=C1C (stereo not shown) [Compound 108, 3-(3-bromo-2-pyridyl)-3-methoxy-2,5,5-trimethyl-6-oxo-cyclohexene-1-carbonitrile] | 1900 nM |
| COC1(c2ncc(F)cc2-c2cccnc2C)C=C(C#N)C(=O)C(C)(C)C1 (stereo not shown) [Compound 177, 3-(5-fluoro-2′-methyl[3,3′-bipyridin]-2-yl)-3-methoxy-5,5-dimethyl-6-oxocyclohex-1-ene-1-carbonitrile] | 103 nM |
| COC1(c2cccc(-c3cncnc3)n2)C=C(C#N)C(=O)C(C)(C)C1 (single isomer, unassigned) [Compound 104, 3-methoxy-5,5-dimethyl-6-oxo-3-(6-(pyrimidin-5-yl)pyridin-2-yl)cyclohex-1-ene-1-carbonitrile] | 45 nM |
| COC1(c2cccc(-c3cnc(C)nc3)n2)C=C(C#N)C(=O)C2(CC2)C1 (single isomer, unassigned) [Compound 50, 7-methoxy-7-(6-(2-methylpyrimidin-5-yl)pyridin-2-yl)-4-oxospiro[2.5]oct-5-ene-5-carbonitrile] | 30 nM |
| CCc1cncc(-c2cc(F)cnc2C2(OC)C=C(C#N)C(=O)C(C)(C)C2)c1 (single isomer, unassigned) [Compound 233, 3-(5′-ethyl-5-fluoro[3,3′-bipyridin]-2-yl)-3-methoxy-5,5-dimethyl-6-oxocyclohex-1-ene-1-carbonitrile] | 6 nM |
| COC1(c2cccc(-c3cccnc3)n2)C=C(C#N)C(=O)C(C)(C)C1 (stereo not shown) [Compound 116, 3-([2,3′-bipyridin]-6-yl)-3-methoxy-5,5-dimethyl-6-oxocyclohex-1-ene-1-carbonitrile] | 382 nM |
| COC1(c2ncc(F)cc2-c2sc(C)nc2C)C=C(C#N)C(=O)C(C)(C)C1 (stereo not shown) [Compound 195, 3-[3-(2,4-dimethyl-1,3-thiazol-5-yl)-5-fluoropyridin-2-yl]-3-methoxy-5,5-dimethyl-6-oxocyclohex-1-ene-1-carbonitrile] | 1300 nM |
| CO[C@]1(c2ncsc2C)C=C(C#N)C(=O)C(C)(C)C1 [Compound 38, (S)-3-methoxy-5,5-dimethyl-3-(5-methylthiazol-4-yl)-6-oxocyclohex-1-enecarbonitrile] | 132 nM |
| COC1(c2ncccc2C(F)(F)F)C=C(C#N)C(=O)C2(CC2)C1 (single isomer, unassigned) [Compound 57, 7-methoxy-4-oxo-7-[3-(trifluoromethyl)pyridin-2-yl]spiro[2.5]oct-5-ene-5-carbonitrile] | 47 nM |
| COC1(c2ncc(F)cc2-c2cnc3c(c2)OCCN3C)C=C(C#N)C(=O)C(C)(C)C1 (single isomer, unassigned) [Compound 205, 3-[5-fluoro-3-(4-methyl-3,4-dihydro-2H-pyrido[3,2-b][1,4]oxazin-7-yl)pyridin-2-yl]-3-methoxy-5,5-dimethyl-6-oxocyclohex-1-ene-1-carbonitrile] | 52 nM |
| COC1(c2nc(C(F)(F)F)cs2)C=C(C#N)C(=O)C(C)(C)C1 (stereo not shown) [Compound 141, 3-methoxy-5,5-dimethyl-6-oxo-3-[4-(trifluoromethyl)-1,3-thiazol-2-yl]cyclohex-1-ene-1-carbonitrile] | 335 nM |
| COC1(c2ncc(F)cc2OC(F)F)C=C(C#N)C(=O)C(C)(C)C1 (stereo not shown) [Compound 174, 3-[3-(difluoromethoxy)-5-fluoropyridin-2-yl]-3-methoxy-5,5-dimethyl-6-oxocyclohex-1-ene-1-carbonitrile] | 41 nM |
| CCOC1(c2ncccc2C(F)(F)F)C=C(C#N)C(=O)C(C)(C)C1 (stereo not shown) [Compound 143, 3-ethoxy-5,5-dimethyl-6-oxo-3-[3-(trifluoromethyl)pyridin-2-yl]cyclohex-1-ene-1-carbonitrile] | 139 nM |
| COC1(c2ncc(F)cc2-c2cncc(C(=O)N(C)C)c2)C=C(C#N)C(=O)C(C)(C)C1 (single isomer, unassigned) [Compound 227, 2′-(3-cyano-1-methoxy-5,5-dimethyl-4-oxocyclohex-2-en-1-yl)-5′-fluoro-N,N-dimethyl[3,3′-bipyridine]-5-carboxamide] | 15 nM |
| COC1(c2ncc(C(F)(F)F)cn2)C=C(C#N)C(=O)C(C)(C)C1 (single isomer, unassigned) [Compound 211, 3-methoxy-5,5-dimethyl-6-oxo-3-[5-(trifluoromethyl)pyrimidin-2-yl]cyclohex-1-ene-1-carbonitrile] | 4 nM |
| [2H]C([2H])([2H])OC1(c2cccc(-c3cnn(C)c3)n2)C=C(C#N)C(=O)C(C)(C)C1 (single isomer, unassigned) [Compound 14, 5,5-Dimethyl-3-[6-(1-methylpyrazol-4-yl)-2-pyridyl]-6-oxo-3-(trideuterio-methoxy)cyclohexene-1-carbonitrile] | 12 nM |
